molecular target: PI 3-Kinase Gamma (Homo sapiens (Human), UniProt P48736); assay: Cellular U937 AKT assay for PI 3-kinase gamma; format: cell-based; settings: U937 cells, MIP1α-stimulated AKT phosphorylation, read-out: Cell PI3K gamma IC50
Method: The U937 monocyte cell line is maintained in a basal medium of RPMI 1640 supplemented with 10% heat inactivated FCS, 100 U/ml Penicillin, 100 ug/ml streptomycin and 2 mM L-glutamine (Invitrogen). U937 suspension culture is maintained by seeding cells at a density of 0.125×10^6 cells per ml in fresh medium every three or four days. Cells are incubated at 37° C., 5% CO2. […] Before beginning the cell manipulations described below, the MSD (Meso Scale Discovery) assay plate is blocked by addition of 150 ul/well blocking buffer supplied and incubated with shaking for a minimum of one hour at room temperature. All steps of the assay must be performed quickly, with accurately timed incubation periods and observing temperature controls where indicated. […] Falcon tube, counted and centrifuged for eight minutes at 300 g at room temperature. Supernatant is aspirated, the cell pellet resuspended and washed once in HBSS (Hank's Balanced Salt Solution) by centrifugation for eight minutes at 300 g at room temperature. The cell pellet is resuspended in HBSS to a concentration of 4×10^6 per ml, and 100 μL of cell suspension added to each well of a flat-bottomed 96-well tissue culture plate. Assay plates are incubated for 1.5 hours at 37° C., 5% CO2 to allow background AKT phosphorylation to reduce before the compound stimulation step. […] Compound concentrations at this stage are 4-times the final concentration required in the assay plate. Cells are stimulated with compound or HBSS 0.8% DMSO by direct transfer of 50 ul/well from the compound dilution plate. The assay plate containing compound-treated cells is then incubated for 30 minutes at 37° C. A standard plate layout is used for all experiments. Compound-treated cells, in addition to positive control wells (“max MIP1α”), are stimulated with 50 μL per well of 40 ng/ml MIP1α (R&D Systems catalogue number 270-LD, lyophilized stock reconstituted to 50 μg/ml with PBS 0.1% BSA). Negative control wells (“min HBSS”), are stimulated with 50 μl/well of HBSS in the absence of MIP1α. […] Cells are incubated with MIP1α for 3 minutes, at 37° C., 5% CO2. After the three minute stimulation period, the assay plate is kept ice cold at all times. Assay plates are centrifuged for 2 minutes at 300 g, 4° C. and supernatant is removed by gently inverting, and then blotting the plate on tissue. Cells are then washed by gentle addition of 150 μL/well of ice cold HBSS and centrifugation at 300 g, for 5 minutes at 4° C. Supernatant is aspirated and the plate blotted as described above. The plate is placed on ice and cells are immediately treated with 35 μL per well of ice cold lysis buffer, prepared according to the kit instructions (per assay plate, to 5 ml of Tris lysis buffer add 100 μl of 50× protease inhibitor solution and 50 μl of each 100× phosphatase inhibitor solutions I and II). Plates are incubated on ice for 20 minutes before centrifugation at 841 g for 5 minutes, 4° C. Block buffer is aspirated from the MSD plate, and the plate washed four times with 300 μl/well Tris wash buffer. 25 μL of cell lysate is then transferred from the assay plate to the washed MSD plate which is sealed and incubated at room temperature for one hour with shaking. The plate is washed four times with 300 μL per well of Tris wash buffer before addition of 25 μL per well of sulfo-tag anti-total AKT/pAKT detection antibody (60 μl of 50× antibody stock is diluted in 1 ml block buffer mixed with 2 ml wash buffer) and incubated at room temperature for one hour with shaking. The plate is washed four times with 300 μl per well of Tris wash buffer and 150 μl per well of Read buffer is added, taking care to avoid the introduction of bubbles. The plate is immediately read using an MSD SECTOR Imager 6000. Results are exported in Excel and the percentage of phosphorylated AKT is calculated using the equation: % Phosphoprotein=((2*Phospho signal)/(Phospho signal+Total signal))*100. […]

PI 3-Kinase Gamma, sequence (P48736 whole entry): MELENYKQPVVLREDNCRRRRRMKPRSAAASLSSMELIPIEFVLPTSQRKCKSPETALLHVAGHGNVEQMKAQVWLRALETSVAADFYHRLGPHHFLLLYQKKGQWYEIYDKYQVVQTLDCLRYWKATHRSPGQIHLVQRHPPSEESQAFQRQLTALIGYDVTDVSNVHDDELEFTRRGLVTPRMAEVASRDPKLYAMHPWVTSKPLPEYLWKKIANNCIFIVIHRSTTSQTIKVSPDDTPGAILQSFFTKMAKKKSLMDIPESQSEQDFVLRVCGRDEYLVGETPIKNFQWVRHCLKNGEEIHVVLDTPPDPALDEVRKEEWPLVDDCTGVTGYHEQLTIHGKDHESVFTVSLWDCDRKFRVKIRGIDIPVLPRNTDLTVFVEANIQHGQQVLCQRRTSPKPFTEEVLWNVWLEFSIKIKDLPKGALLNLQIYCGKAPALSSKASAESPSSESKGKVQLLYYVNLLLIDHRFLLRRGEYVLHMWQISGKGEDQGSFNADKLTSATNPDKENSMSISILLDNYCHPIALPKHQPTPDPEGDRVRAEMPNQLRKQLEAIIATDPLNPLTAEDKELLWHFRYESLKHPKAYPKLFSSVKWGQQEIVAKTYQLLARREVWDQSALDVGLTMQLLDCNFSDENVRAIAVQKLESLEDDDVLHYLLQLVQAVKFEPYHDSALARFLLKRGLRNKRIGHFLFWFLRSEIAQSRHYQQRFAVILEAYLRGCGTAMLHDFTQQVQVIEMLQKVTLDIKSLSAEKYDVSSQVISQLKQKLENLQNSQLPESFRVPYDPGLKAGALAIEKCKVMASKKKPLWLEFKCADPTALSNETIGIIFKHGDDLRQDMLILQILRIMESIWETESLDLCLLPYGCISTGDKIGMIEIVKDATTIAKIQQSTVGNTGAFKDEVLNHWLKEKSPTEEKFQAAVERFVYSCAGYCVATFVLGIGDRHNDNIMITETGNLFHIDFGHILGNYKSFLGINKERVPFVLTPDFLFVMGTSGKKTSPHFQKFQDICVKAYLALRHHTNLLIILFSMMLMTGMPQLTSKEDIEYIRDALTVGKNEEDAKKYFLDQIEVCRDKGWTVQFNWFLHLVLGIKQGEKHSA

| Structure (SMILES) | IC50 [µM] |
| --- | --- |
| Cc1nc(N)nc(N2C[C@@H](O)C[C@H]2c2nc3ccc(F)c(-c4cnn(C)c4)c3c(=O)n2-c2ccccc2)c1C#N [Example 1, 2-Amino-4-((2S,4S)-2-(6-fluoro-5-(1-methyl-1H-pyrazol-4-yl)-4-oxo-3-phenyl-3,4-dihydroquinazolin-2-yl)-4-hydroxypyrrolidin-1-yl)-6-methylpyrimidine-5-carbonitrile] | 0.032 |
| COc1ncc(-c2cccc3nc([C@@H]4CCCN4c4ncnc(N)c4C#N)n(-c4ccccc4)c(=O)c23)cn1 [Example 3, (S)-4-Amino-6-(2-(5-(2-methoxypyrimidin-5-yl)-4-oxo-3-phenyl-3,4-dihydroquinazolin-2-yl)pyrrolidin-1-yl)pyrimidine-5-carbonitrile] | 0.43 |
| COc1ncc(-c2cccc3nc([C@@H]4CCCN4c4nc(N)nc(C)c4C#N)n(-c4ccccc4)c(=O)c23)cn1 [Example 4, (S)-2-Amino-4-(2-(5-(2-methoxypyrimidin-5-yl)-4-oxo-3-phenyl-3,4-dihydroquinazolin-2-yl)pyrrolidin-1-yl)-6-methylpyrimidine-5-carbonitrile] | 0.04 |
| Cn1cc(-c2c(F)ccc3nc([C@@H]4CCCN4c4ncnc(N)c4C#N)n(-c4ccccc4)c(=O)c23)cn1 [Example 5, (S)-4-Amino-6-(2-(6-fluoro-5-(1-methyl-1H-pyrazol-4-yl)-4-oxo-3-phenyl-3,4-dihydroquinazolin-2-yl)pyrrolidin-1-yl)pyrimidine-5-carbonitrile] | 0.22 |
| Cc1nc(N)nc(N2CCC[C@H]2c2nc3ccc(F)c(-c4cnn(C)c4)c3c(=O)n2-c2ccccc2)c1C#N [Example 6, (S)-2-Amino-4-(2-(6-fluoro-5-(1-methyl-1H-pyrazol-4-yl)-4-oxo-3-phenyl-3,4-dihydroquinazolin-2-yl)pyrrolidin-1-yl)-6-methylpyrimidine-5-carbonitrile] | 0.041 |
| COc1ncc(-c2c(F)ccc3nc([C@@H]4C[C@H](O)CN4c4nc(N)nc(C)c4C#N)n(-c4ccccc4)c(=O)c23)cn1 [Example 7, 2-Amino-4-((2S,4S)-2-(6-fluoro-5-(2-methoxypyrimidin-5-yl)-4-oxo-3-phenyl-3,4-dihydroquinazolin-2-yl)-4-hydroxypyrrolidin-1-yl)-6-methylpyrimidine-5-carbonitrile] | 0.025 |
| Cn1cc(-c2c(F)ccc3nc([C@@H]4C[C@H](O)CN4c4ncnc(N)c4C#N)n(-c4ccccc4)c(=O)c23)cn1 [Example 8, 4-Amino-6-((2S,4S)-2-(6-fluoro-5-(1-methyl-1H-pyrazol-4-yl)-4-oxo-3-phenyl-3,4-dihydroquinazolin-2-yl)-4-hydroxypyrrolidin-1-yl) pyrimidine-5-carbonitrile] | 0.029 |
| COc1ncc(-c2c(F)ccc3nc([C@@H]4C[C@H](O)CN4c4nc(N)nc(C)c4C#N)n(-c4ccccc4)c(=O)c23)s1 [Example 9, 2-Amino-4-((2S,4S)-2-(6-fluoro-5-(2-methoxythiazol-5-yl)-4-oxo-3-phenyl-3,4-dihydroquinazolin-2-yl)-4-hydroxypyrrolidin-1-yl)-6-methylpyrimidine-5-carbonitrile] | 0.056 |
| CO[C@H]1C[C@@H](c2nc3cccc(-c4cnn(C)c4)c3c(=O)n2-c2ccccc2)N(c2nc(N)nc(C)c2C#N)C1 [Example 10, 2-Amino-4-((2S,4S)-4-methoxy-2-(5-(1-methyl-1H-pyrazol-4-yl)-4-oxo-3-phenyl-3,4-dihydroquinazolin-2-yl)pyrrolidin-1-yl)-6-methylpyrimidine-5-carbonitrile] | 0.038 |
| CO[C@H]1C[C@@H](c2nc3cccc(-c4cnn(C)c4)c3c(=O)n2-c2ccccc2)N(c2nc(N)nc3[nH]cnc23)C1 [Example 11, 2-((2S,4S)-1-(2-Amino-9H-purin-6-yl)-4-methoxypyrrolidin-2-yl)-5-(1-methyl-1H-pyrazol-4-yl)-3-phenylquinazolin-4(3H)-one] | 0.34 |
| COc1ncc(-c2cccc3nc([C@@H]4C[C@H](OC)CN4c4nc(N)nc(C)c4C#N)n(-c4ccccc4)c(=O)c23)cn1 [Example 12, 2-Amino-4-((2S,4S)-4-methoxy-2-(5-(2-methoxypyrimidin-5-yl)-4-oxo-3-phenyl-3,4-dihydroquinazolin-2-yl)pyrrolidin-1-yl)-6-methylpyrimidine-5-carbonitrile] | 0.12 |
| Cc1ccccc1-n1c([C@@H]2CCCN2c2ncnc(N)c2C#N)nc2cccc(-c3cnn(C)c3)c2c1=O [Example 14, (S)-4-Amino-6-(2-(5-(1-methyl-1H-pyrazol-4-yl)-4-oxo-3-(otolyl)-3,4-dihydroquinazolin-2-yl)pyrrolidin-1-yl)pyrimidine-5-carbonitrile] | 0.21 |
| Cn1cnc(-c2cccc3nc([C@@H]4CCCN4c4ncnc(N)c4C#N)n(-c4ccccc4)c(=O)c23)c1 [Example 15, (S)-4-Amino-6-(2-(5-(1-methyl-1H-imidazol-4-yl)-4-oxo-3-phenyl-3,4-dihydroquinazolin-2-yl)pyrrolidin-1-yl)pyrimidine-5-carbonitrile] | > 10 |
| Cc1nc(N)nc(N2C[C@@H](O)C[C@H]2c2nc3cccc(-c4cnn(C)c4)c3c(=O)n2-c2ccccc2)c1C#N [Example 16, 2-Amino-4-((2S,4S)-4-hydroxy-2-(5-(1-methyl-1H-pyrazol-4-yl)-4-oxo-3-phenyl-3,4-dihydroquinazolin-2-yl)pyrrolidin-1-yl)-6-methylpyrimidine-5-carbonitrile] | 0.055 |
| Cc1nc(N)nc(N2CCC[C@H]2c2nc3cccc(-c4cncnc4)c3c(=O)n2-c2ccccc2)c1C#N [Example 17, (S)-2-Amino-4-methyl-6-(2-(4-oxo-3-phenyl-5-(pyrimidin-5-yl)-3,4-dihydroquinazolin-2-yl)pyrrolidin-1-yl)pyrimidine-5-carbonitrile] | 0.29 |
| COc1cncc(-c2cccc3nc([C@@H]4CCCN4c4nc(N)nc(C)c4C#N)n(-c4ccccc4)c(=O)c23)c1 [Example 18, (S)-2-Amino-4-(2-(5-(5-methoxypyridin-3-yl)-4-oxo-3-phenyl-3,4-dihydroquinazolin-2-yl)pyrrolidin-1-yl)-6-methylpyrimidine-5-carbonitrile] | 0.016 |
| Cc1ncc(-c2cccc3nc([C@@H]4CCCN4c4nc(N)nc(C)c4C#N)n(-c4ccccc4)c(=O)c23)cn1 [Example 19, (S)-2-Amino-4-methyl-6-(2-(5-(2-methylpyrimidin-5-yl)-4-oxo-3-phenyl-3,4-dihydroquinazolin-2-yl)pyrrolidin-1-yl)pyrimidine-5-carbonitrile] | 0.22 |
| Cc1nc(N)nc(N2CCC[C@H]2c2nc3cccc(-c4cccnc4)c3c(=O)n2-c2ccccc2)c1C#N [Example 20, (S)-2-Amino-4-methyl-6-(2-(4-oxo-3-phenyl-5-(pyridin-3-yl)-3,4-dihydroquinazolin-2-yl)pyrrolidin-1-yl)pyrimidine-5-carbonitrile] | 0.27 |
| COc1ccc(-c2cccc3nc([C@@H]4CCCN4c4nc(N)nc(C)c4C#N)n(-c4ccccc4)c(=O)c23)cn1 [Example 21, (S)-2-Amino-4-(2-(5-(6-methoxypyridin-3-yl)-4-oxo-3-phenyl-3,4-dihydroquinazolin-2-yl)pyrrolidin-1-yl)-6-methylpyrimidine-5-carbonitrile] | 1.1 |
| COc1ncc(-c2cccc3nc([C@@H]4C[C@H](O)CN4c4nc(N)nc(C)c4C#N)n(-c4ccccc4)c(=O)c23)cn1 [Example 22, 2-Amino-4-((2S,4S)-4-hydroxy-2-(5-(2-methoxypyrimidin-5-yl)-4-oxo-3-phenyl-3,4-dihydroquinazolin-2-yl)pyrrolidin-1-yl)-6-methylpyrimidine-5-carbonitrile] | 0.018 |

From patent US9840498B2, “Substituted quinazolin-4-one derivatives” (NOVARTIS AG, priority 2013, dated 2017)
